From PubChem BioAssay AID2060508 (Molecular Pharmacology Branch, DTP, NCI, 2025)
pIC50: −log10 of the molar value.

Tested on: 454973-116-R2-J3-PDC spheroids, viability, % test/control
Experiment: Anticancer human tumor 454973-116-R2-J3-PDC patient-derived pancreatic carcinoma cell line growth inhibition [GQUAD]
Conditions: spheroids with HUVEC and MSC; for pIC50: curve of first compound; for viability, T/C: stronger effect = lower value
Procedure, shortened: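 Tumor cells were grown as complex spheroids with HUVEC endothelial cells and mesenchymal stem cells as stroma. G-quadruplex stabilizers were combined with targeted agents over half-log dilutions from near the clinical Cmax, or from 10 microM.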

[1] = second compound 0.0316 µM, first compound 0.0316 µM
[2] = second compound 0.0316 µM, first compound 0.1 µM
[3] = second compound 0.0316 µM, first compound 0.316 µM
[4] = second compound 0.0316 µM, first compound 1 µM
[5] = second compound 0.0316 µM, first compound 3.16 µM
[6] = second compound 0.0316 µM, first compound 10 µM
[7] = second compound 0.1 µM, first compound 0.0316 µM
[8] = second compound 0.1 µM, first compound 0.1 µM
[9] = second compound 0.1 µM, first compound 0.316 µM
[10] = second compound 0.1 µM, first compound 1 µM
[11] = second compound 0.1 µM, first compound 3.16 µM
[12] = second compound 0.1 µM, first compound 10 µM
[13] = second compound 0.316 µM, first compound 0.0316 µM
[14] = second compound 0.316 µM, first compound 0.1 µM
[15] = second compound 0.316 µM, first compound 0.316 µM
[16] = second compound 0.316 µM, first compound 1 µM
[17] = second compound 0.316 µM, first compound 3.16 µM
[18] = second compound 0.316 µM, first compound 10 µM
[19] = second compound 1 µM, first compound 0.0316 µM
[20] = second compound 1 µM, first compound 0.1 µM
[21] = second compound 1 µM, first compound 0.316 µM
[22] = second compound 1 µM, first compound 1 µM
[23] = second compound 1 µM, first compound 3.16 µM
[24] = second compound 1 µM, first compound 10 µM
[25] = second compound 3.16 µM, first compound 0.0316 µM
[26] = second compound 3.16 µM, first compound 0.1 µM
[27] = second compound 3.16 µM, first compound 0.316 µM
[28] = second compound 3.16 µM, first compound 1 µM
[29] = second compound 3.16 µM, first compound 3.16 µM
[30] = second compound 3.16 µM, first compound 10 µM
[31] = second compound 10 µM, first compound 0.0316 µM
[32] = second compound 10 µM, first compound 0.1 µM
[33] = second compound 10 µM, first compound 0.316 µM
[34] = second compound 10 µM, first compound 1 µM
[35] = second compound 10 µM, first compound 3.16 µM
[36] = second compound 10 µM, first compound 10 µM
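Further: spheroids exposed to compounds for seven days.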
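Wherever viability, T/C is given: 100% = DMSO vehicle control viability.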

C=CCn1c(=O)c2cnc(Nc3ccc(N4CCN(C)CC4)cc3)nc2n1-c1cccc(C(C)(C)O)n1 + Cc1cnc(CNC(=O)c2c(=O)c3ccc(N4CCCN(C)CC4)nc3n3c2sc2ccccc23)cn1
pIC50 (second compound 0.0316 µM): 6.72 | pIC50 (second compound 0.1 µM): 6.92 | pIC50 (second compound 0.316 µM): 6.96 | pIC50 (second compound 1 µM): 6.58 | pIC50 (second compound 3.16 µM): 6.73 | pIC50 (second compound 10 µM): > 7.50 | viability, T/C [1]: 98% | viability, T/C [2]: 78.8% | viability, T/C [3]: 27% | viability, T/C [4]: 11.7% | viability, T/C [5]: 6.73% | viability, T/C [6]: 10.2% | viability, T/C [7]: 76.5% | viability, T/C [8]: 53.6% | viability, T/C [9]: 29.8% | viability, T/C [10]: 12% | viability, T/C [11]: 8.47% | viability, T/C [12]: 8.54% | viability, T/C [13]: 57.6% | viability, T/C [14]: 49.7% | viability, T/C [15]: 37.2% | viability, T/C [16]: 18.1% | viability, T/C [17]: 9.06% | viability, T/C [18]: 9.69% | viability, T/C [19]: 60.9% | viability, T/C [20]: 59.2% | viability, T/C [21]: 48.2% | viability, T/C [22]: 22.4% | viability, T/C [23]: 13.7% | viability, T/C [24]: 13.6% | viability, T/C [25]: 58.3% | viability, T/C [26]: 63.1% | viability, T/C [27]: 40.8% | viability, T/C [28]: 23.9% | viability, T/C [29]: 18.2% | viability, T/C [30]: 21.9% | viability, T/C [31]: 0.34% | viability, T/C [32]: 20.9% | viability, T/C [33]: 23.4% | viability, T/C [34]: 0.26% | viability, T/C [35]: 0.3% | viability, T/C [36]: 0.38%

CC(C)(O)C1CCC(Nc2ccc3ncc(-c4cccc(C(F)(F)F)c4)n3n2)CC1 (stereo unspecified) + Cc1cnc(CNC(=O)c2c(=O)c3ccc(N4CCCN(C)CC4)nc3n3c2sc2ccccc23)cn1
pIC50 (second compound 0.0316 µM): 5.76 | pIC50 (second compound 0.1 µM): 5.81 | pIC50 (second compound 0.316 µM): 5.79 | pIC50 (second compound 1 µM): 5.76 | pIC50 (second compound 3.16 µM): 5.87 | pIC50 (second compound 10 µM): > 7.50 | viability, T/C [1]: 108% | viability, T/C [2]: 89.3% | viability, T/C [3]: 96.5% | viability, T/C [4]: 75% | viability, T/C [5]: 21.5% | viability, T/C [6]: 23.8% | viability, T/C [7]: 83.3% | viability, T/C [8]: 83.8% | viability, T/C [9]: 85.4% | viability, T/C [10]: 65.4% | viability, T/C [11]: 22% | viability, T/C [12]: 27.6% | viability, T/C [13]: 82.8% | viability, T/C [14]: 69.2% | viability, T/C [15]: 76.2% | viability, T/C [16]: 64.3% | viability, T/C [17]: 28.9% | viability, T/C [18]: 32.1% | viability, T/C [19]: 76.4% | viability, T/C [20]: 65.6% | viability, T/C [21]: 65.1% | viability, T/C [22]: 66.5% | viability, T/C [23]: 31.9% | viability, T/C [24]: 32.5% | viability, T/C [25]: 66.9% | viability, T/C [26]: 65.2% | viability, T/C [27]: 63.9% | viability, T/C [28]: 59.8% | viability, T/C [29]: 21.3% | viability, T/C [30]: 25.9% | viability, T/C [31]: 0.3% | viability, T/C [32]: 17.6% | viability, T/C [33]: 49% | viability, T/C [34]: 0.58% | viability, T/C [35]: 0.43% | viability, T/C [36]: 0.23%

COc1ncnc(C2CC2)c1-c1ncc2cnn(Cc3ccc(-c4nc(C(F)(F)F)cn4C(C)C)cc3)c2n1 + Cc1cnc(CNC(=O)c2c(=O)c3ccc(N4CCCN(C)CC4)nc3n3c2sc2ccccc23)cn1
pIC50 (second compound 0.0316 µM): < 5.00 | pIC50 (second compound 0.1 µM): < 5.00 | pIC50 (second compound 0.316 µM): < 5.00 | pIC50 (second compound 1 µM): < 5.00 | pIC50 (second compound 3.16 µM): < 5.00 | pIC50 (second compound 10 µM): > 7.50 | viability, T/C [1]: 96% | viability, T/C [2]: 94% | viability, T/C [3]: 87.8% | viability, T/C [4]: 104% | viability, T/C [5]: 88.9% | viability, T/C [6]: 86.9% | viability, T/C [7]: 82.1% | viability, T/C [8]: 69.4% | viability, T/C [9]: 74.7% | viability, T/C [10]: 71.4% | viability, T/C [11]: 69% | viability, T/C [12]: 63.4% | viability, T/C [13]: 65.4% | viability, T/C [14]: 61.9% | viability, T/C [15]: 59.5% | viability, T/C [16]: 69.2% | viability, T/C [17]: 60% | viability, T/C [18]: 62% | viability, T/C [19]: 55.3% | viability, T/C [20]: 69.4% | viability, T/C [21]: 57.4% | viability, T/C [22]: 63.2% | viability, T/C [23]: 61.4% | viability, T/C [24]: 58.4% | viability, T/C [25]: 61.7% | viability, T/C [26]: 58.8% | viability, T/C [27]: 61.7% | viability, T/C [28]: 57.8% | viability, T/C [29]: 67.8% | viability, T/C [30]: 54% | viability, T/C [31]: 0.22% | viability, T/C [32]: 19.6% | viability, T/C [33]: 50.4% | viability, T/C [34]: 40.6% | viability, T/C [35]: 0.38% | viability, T/C [36]: 0.3%
